The values that follow come from patent US20240254118A1, “PRMT5 INHIBITORS AND USES THEREOF” (Gilead Sciences, Inc., priority 2022, published 2024).

Experiment [1] relates to SDMA signal (PRMT5 inhibition) in HCT116 MTAP-deleted cells. Nature of the experiment: Symmetric di-methyl arginine image-based high content screen assay (SDMA assay), HCT116 MTAP-deleted. It counts as cell-based. The conditions noted are these: SDMA assay; for EC50: Homo sapiens, HCT-116, 72 h, 3 days of treatment, cell line not given, taken as HCT116 MTAP-deleted, read-out: EC50 (SDMA assay); for EC50 selectivity (SDMA assay): taken as HCT116 WT versus MTAP-deleted. Summed up: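 Read-out: per-cell mean SDMA immunofluorescence (Alexa Fluor 488 secondary), cells segmented by DAPI on a high-content imager. Compound exposure in HCT116 MTAP-deleted cells lasted until fixation on Day 3; overnight 4° C primary anti-SDMA antibody staining.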

Experiment [2] concerns HCT116 MTAP-deleted cells. The experiment in a line: Cell viability assay (CellTiter-Glo, 7 days), HCT116 MTAP-deleted. The conditions noted are these: Homo sapiens, HCT-116, 168 h. A general note: ATP-based viability assays read luminescence as a measure of living cells.

As for `CC(=O)N(C)N(Cc1ccc2scnc2c1)C(=O)c1cc2c(cc1F)nc(N)c1cnn(C)c12` [Example 328, N′-acetyl-4-amino-N-(benzo[d]thiazol-5-ylmethyl)-7-fluoro-N′,1-dimethyl-1H-pyrazolo[4,3-c]quinoline-8-carbohydrazide], in experiment [1], the EC50 was in the range of 1 to 5 nM and the “EC50 selectivity (SDMA assay)” value was found to be 143. Moreover, in experiment [2], the 50% cytotoxic concentration (CC50) was < 100 nM.

For the compound `CC(=O)N(C)N(Cc1ccc(Cl)cc1Cl)C(=O)c1ccc2nc(N)c3cnn(C)c3c2c1` [Example 329, N′-acetyl-4-amino-N-(2,4-dichlorobenzyl)-N′,1-dimethyl-1H-pyrazolo[4,3-c]quinoline-8-carbohydrazide], in experiment [1], the EC50 is < 1 nM and the “EC50 selectivity (SDMA assay)” value was found to be 134. Further, in experiment [2], the CC50 is < 100 nM.

For the compound `Cn1ncc2c(N)nc3ccc(C(=O)N(Cc4ccc(C(F)(F)F)cn4)NC(=O)OC4CCC4)cc3c21` [Example 330, cyclobutyl 2-(4-amino-1-methyl-1H-pyrazolo[4,3-c]quinoline-8-carbonyl)-2-((5-(trifluoromethyl)pyridin-2-yl)methyl)hydrazine-1-carboxylate], in experiment [1], the EC50 was < 1 nM and the “EC50 selectivity (SDMA assay)” value came to 225. Besides, the CC50 in experiment [2] was < 100 nM.

With `Cn1ncc2c(N)nc3cc(F)c(C(=O)N(Cc4ccc(C(F)(F)F)cn4)NC(=O)OC4CCC4)cc3c21` [Example 331, cyclobutyl 2-(4-amino-7-fluoro-1-methyl-1H-pyrazolo[4,3-c]quinoline-8-carbonyl)-2-((5-(trifluoromethyl)pyridin-2-yl)methyl)hydrazine-1-carboxylate], in experiment [1], the EC50 is < 1 nM and the “EC50 selectivity (SDMA assay)” value worked out at 37. In addition, the CC50 in experiment [2] was < 100 nM.

Regarding `Cn1ncc2c(N)nc3ccc(C(=O)N(Cc4ccc(C(F)(F)F)cn4)NC(=O)C45CC(C4)C5)cc3c21` [Example 332, 4-amino-N′-(bicyclo[1.1.1]pentane-1-carbonyl)-1-methyl-N-((5-(trifluoromethyl)pyridin-2-yl)methyl)-1H-pyrazolo[4,3-c]quinoline-8-carbohydrazide], in experiment [1], the concentration for a half-maximal effect (EC50) is < 1 nM and the “EC50 selectivity (SDMA assay)” value is 308. For the same compound, in experiment [2], the CC50 is < 100 nM.

For `Cn1ncc2c(N)nc3cc(F)c(C(=O)N(Cc4ccc(C(F)(F)F)cn4)NC(=O)C45CC(C4)C5)cc3c21` [Example 333, 4-amino-N′-(bicyclo[1.1.1]pentane-1-carbonyl)-7-fluoro-1-methyl-N-((5-(trifluoromethyl)pyridin-2-yl)methyl)-1H-pyrazolo[4,3-c]quinoline-8-carbohydrazide], in experiment [1], the EC50 was < 1 nM and the “EC50 selectivity (SDMA assay)” value is given as 317. Besides, the CC50 in experiment [2] was < 100 nM.

Turning to `CC(=O)N(C)N(Cc1ccc2oc(C)nc2c1)C(=O)c1ccc2nc(N)c3cnn(C)c3c2c1` [Example 334, N′-acetyl-4-amino-N′,1-dimethyl-N-((2-methylbenzo[d]oxazol-5-yl)methyl)-1H-pyrazolo[4,3-c]quinoline-8-carbohydrazide], in experiment [1], the EC50 is 1 to 5 nM and the “EC50 selectivity (SDMA assay)” value is 178. Also, the CC50 in experiment [2] was in the range of 100 to 1000 nM.

In the case of `CC(=O)N(C)N(Cc1ccc2nc(C)oc2c1)C(=O)c1ccc2nc(N)c3cnn(C)c3c2c1` [Example 335, N′-acetyl-4-amino-N′,1-dimethyl-N-((2-methylbenzo[d]oxazol-6-yl)methyl)-1H-pyrazolo[4,3-c]quinoline-8-carbohydrazide], in experiment [1], the 50% effective concentration (EC50) is 1 to 5 nM and the “EC50 selectivity (SDMA assay)” value came to 272. The CC50 in experiment [2] is < 100 nM.

Consider `Cn1ncc2c(N)nc3ccc(C(=O)N(Cc4ccc(C(F)(F)F)cn4)N4CCC5(CC5)OC4=O)cc3c21` [Example 336, 4-amino-1-methyl-N-(5-oxo-4-oxa-6-azaspiro[2.5]octan-6-yl)-N-((5-(trifluoromethyl)pyridin-2-yl)methyl)-1H-pyrazolo[4,3-c]quinoline-8-carboxamide], for which, in experiment [1], the EC50 is 1 to 5 nM and the “EC50 selectivity (SDMA assay)” value is 94. Also, the CC50 in experiment [2] is < 100 nM.

`CC(=O)N(C)N(Cc1ccc2nc(C(F)(F)F)sc2c1)C(=O)c1ccc2nc(N)c3cnn(C)c3c2c1` [Example 337, N′-acetyl-4-amino-N′,1-dimethyl-N-((2-(trifluoromethyl)benzo[d]thiazol-6-yl)methyl)-1H-pyrazolo[4,3-c]quinoline-8-carbohydrazide]: in experiment [1], the EC50 lay in the range of 1 to 5 nM and the “EC50 selectivity (SDMA assay)” value turned out to be 67. In experiment [2], the CC50 is < 100 nM.

Consider `CN(C(=O)C12CC(C1)C2)N(Cc1ccc2ncsc2c1)C(=O)c1ccc2nc(N)c3cnn(C)c3c2c1` [Example 338, 4-amino-N-(benzo[d]thiazol-6-ylmethyl)-N′-(bicyclo[1.1.1]pentane-1-carbonyl)-N′,1-dimethyl-1H-pyrazolo[4,3-c]quinoline-8-carbohydrazideide], for which, in experiment [1], the EC50 was < 1 nM and the “EC50 selectivity (SDMA assay)” value came out at 373. Besides, the CC50 in experiment [2] was < 100 nM.

For the compound `CN(C(=O)C1(C(F)F)CC1)N(Cc1ccc(C(F)(F)F)cn1)C(=O)c1ccc2nc(N)c3cnn(C)c3c2c1` [Example 339, 4-amino-N′-(1-(difluoromethyl)cyclopropane-1-carbonyl)-N′,1-dimethyl-N-((5-(trifluoromethyl)pyridin-2-yl)methyl)-1H-pyrazolo[4,3-c]quinoline-8-carbohydrazide], in experiment [1], the EC50 lay within 1 to 5 nM and the “EC50 selectivity (SDMA assay)” value worked out at 280. Further, the CC50 in experiment [2] lay within 100 to 1000 nM.

Consider `CC(=O)N(C1COC1)N(Cc1ccc(C(F)(F)F)cc1F)C(=O)c1ccc2nc(N)c3cnn(C)c3c2c1` [Example 340, N′-acetyl-4-amino-N-(2-fluoro-4-(trifluoromethyl)benzyl)-1-methyl-N′-(oxetan-3-yl)-1H-pyrazolo[4,3-c]quinoline-8-carbohydrazide], for which, in experiment [1], the EC50 was < 1 nM and the “EC50 selectivity (SDMA assay)” value turned out to be 50. Moreover, the CC50 in experiment [2] was < 100 nM.

On to `CC(=O)N(CC1CC1)N(Cc1ccc(C(F)(F)F)cn1)C(=O)c1ccc2nc(N)c3cnn(C)c3c2c1` [Example 341, N′-acetyl-4-amino-N′-(cyclopropylmethyl)-1-methyl-N-((5-(trifluoromethyl)pyridin-2-yl)methyl)-1H-pyrazolo[4,3-c]quinoline-8-carbohydrazide], for which, in experiment [1], the 50% effective concentration (EC50) lay in the range of 1 to 5 nM and the “EC50 selectivity (SDMA assay)” value stood at 188. The CC50 in experiment [2] is < 100 nM.

As for `CN(C(=O)C(F)(F)C1CC1)N(Cc1ccc(C(F)(F)F)cn1)C(=O)c1ccc2nc(N)c3cnn(C)c3c2c1` [Example 342, 4-amino-N′-(2-cyclopropyl-2,2-difluoroacetyl)-N′,1-dimethyl-N-((5-(trifluoromethyl)pyridin-2-yl)methyl)-1H-pyrazolo[4,3-c]quinoline-8-carbohydrazide], in experiment [1], the EC50 was 1 to 5 nM and the “EC50 selectivity (SDMA assay)” value is given as 30. For the same compound, the CC50 in experiment [2] is < 100 nM.

On to `CN(C(=O)C1CC1)N(Cc1ccc(C(F)(F)F)cc1)C(=O)c1ccc2nc(N)c3cnn(C)c3c2c1` [Example 343, 4-amino-N′-(cyclopropanecarbonyl)-N′,1-dimethyl-N-(4-(trifluoromethyl)benzyl)-1H-pyrazolo[4,3-c]quinoline-8-carbohydrazide], for which, in experiment [1], the EC50 is < 1 nM and the “EC50 selectivity (SDMA assay)” value is listed as 96. The CC50 in experiment [2] was < 100 nM.

As usually defined, the EC50 is the concentration that produces a half-maximal response. In general, CC50 refers to the concentration at which the toxic effect on the cells reaches its halfway point. A low value points to harm at low concentration.
